US4159328A, “Tetrahydro-1,3,5-thiadiazin-4-one derivative” (Nihon Nohyaku Co., Ltd., priority 1977, dated 1979)
Where two headings read alike, the source gives them in different places.

Columns and labels:
Assay type in all cases: in vivo
[1] = test system: larvae of brown planthopper (Nilaparvata lugens Stahl); assay: Test Example 1: insecticidal activity against larvae of brown planthopper; conditions: third-instar larvae, 25° C.
Method in brief: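 Rice seedlings at 1.5-leaf stage were dipped for 30 s in a 400 ppm test composition, air-dried, and infested with third-instar N. lugens larvae. After holding at 25 °C, mortality was scored 5 or 7 days post-treatment from three replicates.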

[2] = test system: larvae of green rice leafhopper (Nephotettix cincticeps Uhler); assay: Test Example 5: activity against larvae of green rice leafhopper; conditions: 168 h, 400 ppm, second-instar larvae, 25° C., seven days after treatment, read-out: Mortality
Method in brief: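 Rice seedlings at 1.5 leaf age dipped 30 seconds in 400 ppm test composition, air-dried, then infested with five second-instar larvae. Kept at 25° C; mortality scored seven days after treatment, three replicates.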

[3] = test system: larvae of house mosquito (Culex pipiens pallens Coquillett); assay: Test Example 6: insecticidal activity to larvae of house mosquito; conditions: 120 h
Method in brief: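 Twenty first-instar Culex pipiens pallens larvae placed with feed in test composition diluted in deionized water to 10 ppm. Kept at 25 °C, and mortality counted five days after treatment.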

[4] = test system: larvae of 28-spotted lady beetle (Epilachna vigintioctopunctana Fabricius); assay: Test Example 8: insecticidal activity against larvae of 28-spotted lady beetle; conditions: 120 h
Method: Insecticidal activity against larvae of 28-spotted lady beetle (Epilachna vigintioctopunctana Fabricius).
Testing method: Leaflets of tomato grown in a greenhouse were dipped in a test composition of 100 ppm concentration for 30 seconds and after that the leaflets were dried by air. In a Petri dish covered on the bottom with a piece of filter paper, were introduced 1 ml of water and three treated tomato leaflets. After having been infested with seven second-instar larvae of 28-spotted lady beetle, the Petri dish was left standing in a constant temperature cabinet at 25° C. Five days after the treatment, the dead-and-survival was inspected to calculate the mortality (2-replication test).

[5] = test system: larvae of bug. (Togo hemipterus Scott); assay: Test Example 9: insecticidal activity against larvae of bug; conditions: 120 h, 10 ppm, first-instar larvae, 25° C., five days, read-out: Mortality
Method: Insecticidal activity against larvae of bug. (Togo hemipterus Scott).
Test method: Into a glass tube (1.6 cm in internal diameter and 9 cm in length), was added 1 ml of a test composition in 10 ppm concentration just to moisten the absorbent cotton. Five rice seeds and five first-instar larvae were introduced into the glass tube and the tube end was covered with a piece of Japanese paper. The glass tube was kept in a constant temperature cabinet at 25° C. Five days after treatment, the dead-and-survival was inspected to calculate the mortality (3-replication test).

[6] = test system: larvae of white-backed planthopper (Sogatella furcifera Horvath); assay: Test Example 2: insecticidal activity against larvae of white-backed planthopper; conditions: 168 h, 400 ppm, first-instar larvae, 25° C., seven days after treatment, read-out: Mortality
Method in brief: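 Rice seedlings at 1.5-leaf stage were dipped 30 s in 400 ppm test composition, air-dried, and infested with five first-instar larvae. Tubes were held at 25°C, and mortality was scored at 7 days from triplicate tests.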

[7] = test system: two-spotted spider mite (Tetranychus urticae Koch); assay: Test Example 3: activity to two-spotted spider mite; conditions: 48 h, 1,000 ppm, 2 days after treatment
Source text: Activity to two-spotted spider mite (Tetranychus urticae Koch).
Testing method: Two-spotted spider mites were set free on the pot-planted soybean in a greenhouse. On the next day, a test composition of 1,000 ppm concentration was sprayed over the soybean by means of a spray gun. Two days or five days after the treatment, dead-and-survival was inspected to calculate the mortality.

[8] = test system: cirrus red mite (Panonychus citri McGregor); assay: Test Example 4: activity to citrus red mite (Rothamstead method); parameters: concentration or dose not given beside the values; conditions: two days after treatment, 25° C.; 2880 min
Method: Activity to cirrus red mite (Panonychus citri McGregor).
Testing method: The test was performed by Rothamstead method. A test composition was sprayed by means of a spray gun over grapefruit leaves infested with citrus red mites. After air-drying the grapefruit was left standing in a constant temperature cabinet at 25° C. Two days after the treatment, the number of survived mites was counted to calculate the mortality.

| Structure (SMILES) | mortality at 400 ppm ([1]; 120 h, 5 days after treatment) [%] | mortality at 400 ppm [2] [%] | mortality at 10 ppm [3] [%] | mortality at 100 ppm [4] [%] | mortality at 10 ppm [5] [%] | mortality at 400 ppm ([1]; 168 h, 7 days after treatment) [%] | mortality at 400 ppm [6] [%] | mortality at 1000 ppm [7] [%] | Mortality [8] [%] | mortality at 100 ppm ([4]; 100 ppm, second-instar larvae, 25° C., five days, read-out: Mortality) [%] |
| --- | --- | --- | --- | --- | --- | --- | --- | --- | --- | --- |
| CCC(C)N=C1SCN(c2ccccc2)C(=O)N1C(C)CC (centres unmarked) [Compound 151] | 100 | 100 | 100 | 100 | 80 | – | – | – | – | – |
| Cc1ccc(N=C2SCN(C(C)(C)C)C(=O)N2C)cc1 [Compound 72, 2-p-Tolylimino-3-methyl-5-t-butyl-tetrahydro-1,3,5-thiadiazin-4-one] | – | 80 | – | – | – | 80 | 100 | 100 | 80 | – |
| CCN=C1SCN(C(C)C)C(=O)N1CC [Compound 23] | – | 80 | – | – | – | 100 | 100 | 100 | 80 | – |
| C=CCN1C(=O)N(c2ccccc2)CSC1=NC(C)(C)C [Compound 143] | – | 100 | 80 | 100 | 100 | – | – | – | – | – |
| CCCN=C1SCN(Cc2ccccc2)C(=O)N1CCC [Compound 56] | – | 50 | – | – | – | 80 | 80 | 100 | 100 | – |
| CC(C)CN1C(=O)N(c2ccccc2)CSC1=NC(C)C [Compound 149, 2-Isopropylimino-3-isobutyl-5-phenyl-tetrahydro-1,3,5-thiadiazin-4-one] | 100 | – | 100 | 100 | 50 | – | – | – | – | – |
| CCCCN1CSC(=NC(C)C)N(C)C1=O [Compound 25] | – | 100 | – | – | – | 100 | 100 | 100 | 80 | – |
| C=CCN=C1SCN(c2ccccc2)C(=O)N1CC=C [Compound 139] | 100 | – | 100 | 100 | 100 | – | – | – | – | – |
| CC(C)(C)N=C1SCN(c2ccccc2)C(=O)N1C1CCCCC1 [Compound 155, 2-t-Butylimino-3-cyclohexyl-5-phenyl-tetrahydro-1,3,5-thiadiazin-4-one] | 50 | – | 100 | 100 | 100 | – | – | – | – | – |
| CCN=C1SCN(c2ccccc2)C(=O)N1c1ccccc1 [Compound 162] | 100 | – | 100 | – | 50 | – | – | – | – | 50 |
| CCCN1C(=O)N(c2ccccc2)CSC1=NC(C)CC (centres unmarked) [Compound 136] | 80 | – | 100 | 50 | 100 | – | – | – | – | – |
| CN=C1SCN(C(C)(C)C)C(=O)N1c1ccccc1 [Compound 69] | – | 100 | – | – | – | 100 | 100 | 100 | 80 | – |
| CCCN1CSC(=NC(C)C)N(C(C)C)C1=O [Compound 14] | – | 100 | – | – | – | 80 | 100 | 100 | 50 | – |
| CN=C1SCN(C(C)(C)C)C(=O)N1c1ccc(Cl)cc1C [Compound 82] | – | 80 | – | – | – | 100 | 100 | 100 | 100 | – |
| CC(C)N1C(=O)N(C(C)(C)C)CSC1=NC(C)(C)CC(C)(C)C [Compound 48] | – | 80 | – | – | – | 100 | 100 | 100 | 100 | – |
| CN=C1SCN(C(C)(C)CC(C)(C)C)C(=O)N1c1ccccc1 [Compound 88] | – | 80 | – | – | – | 100 | 100 | 100 | 100 | – |
